For test [1], the system named is AMPA receptor. The conditions noted are these: cited: LaPeillet et al.; cited from earlier work.
Test [2] relates to AMPA receptor. The settings on record: cited: Sheardown et al.; Buchan et al.; LePeillet et al.; cited from earlier work.
Test [3] has as its target NMDA receptor. Description: Radioligand binding: displacement of [^3 H]CGS19755 from synaptosomal membranes of rat forebrain (NMDA receptor affinity). The conditions noted are these: [^3 H]CGS19755 10 nM, mean ± standard error (n = 3), values marked ^c single experiment. On the procedure:
(§1) The formula I compounds were tested for their ability to inhibit NMDA, AMPA, and kainic acid receptor binding to rat membranes in a radioligand binding assay using [^3 H]CGS19755, [^3 H]AMPA, and [^3 H]KA. For all radioligand binding assays, male Sprague-Dawley rats were used. […] Non-specific binding was determined using 10 μM L-glutamate. Samples were incubated in an ice-bath for 30 minutes, and bound ligand was separated from the free ligand by rapid filtration through WHATMAN GF/B glass fiber filters. Murphy et al, British J. Pharmacol., 95, 932-938 (1988). Kainate binding was performed using washed synaptosomal membranes from the rat forebrain as described by Simon et al. Simon et al, J. Neurochem., 26, 141-147 (1976). Tritiated kainate (5 nM) was added to 50 mM Tris-HCl buffer (pH 7.4 at 4° C.) containing 200-300 μg/ml of tissue protein. Samples were incubated for 30 minutes in an ice-bath, then rapidly filtered using a Brandel cell harvester and WHATMAN GF/C filters. Filters were washed twice with 3 ml of cold buffer. Non-specific binding was determined using 100 μM non-labeled kainate. The binding of [^3 H]AMPA (5 nM) was conducted with crude membranes of rat forebrain in the presence of 100 mM KSCN as described by Nielson et al. Nielson et al, Eur. J. Med. Chem. Chim. Ther., 21, 433-437 (1986). Non-specific binding was determined with 10 μM non-labeled AMPA. The concentration of the formula I compound that inhibited 50% binding (IC50, mean ±standard error, n=3) as calculated by linear regression of displacement data transformed to the Hill equation as described by Bennett. Bennett, Neurotransmitter Receptor Binding, 57-90 (1978).

Test [4] has as its target kainic acid (KA) receptor. Description: Antagonism of kainate-induced depolarization of rat cortical wedges. It counts as cell-based. The settings on record: kainate 10 μM, mean ± standard error (n = 3). On the procedure: (§2) The depolarization of rat cortical wedges was used to test the selectivity and potency of the formula I compounds as AMPA antagonists using a technique similar to that described by Harrison and Simmonds. Harrison and Simmonds, Bri. J. Pharmacol., 84, 381-391 (1984). Generally, 4-ml aliquots of NMDA (40 μM), AMPA (40 μM), and kainate (10 μM) were superfused (2 ml/min.) on the grey matter at intervals of 15-20 minutes until stable responses were attained. The tissue was then exposed for 15 minutes to various concentrations of the formula I compounds before retesting the agonists. The IC50 values were calculated from linear regression of log dose-response curves, each point the mean of at least three observations on separate slices from more than one animal.

Test [5] has as its target NMDA receptor. Description: Antagonism of NMDA-induced depolarization of rat cortical wedges. It is filed as cell-based. The conditions noted are these: NMDA 40 μM, mean ± standard error (n = 3), read-out: IC50 NMDA, antagonism of cortical wedge depolarization. The protocol:
as §2

Test [6] relates to AMPA receptor. Description: Antagonism of AMPA-induced depolarization of rat cortical wedges. It counts as cell-based. The settings on record: for selective AMPA receptor antagonism (in words): cortical wedge; for IC50: AMPA 40 μM, mean ± standard error (n = 3), read-out: IC50 AMPA, antagonism of cortical wedge depolarization. The protocol:
as §2

In test [7] the target is kainic acid (KA) receptor. Description: Radioligand binding: tritiated kainate binding with washed synaptosomal membranes from the rat forebrain. The conditions noted are these: tritiated kainate 5 nM, pH 7.4, mean ± standard error (n = 3), values marked ^c single experiment. On the procedure:
as §1

For test [8], the target named is AMPA receptor. Description: Radioligand binding: [^3 H]AMPA binding with crude membranes of rat forebrain. On the procedure:
as §1

The mark [9] stands for this setting: Table I, racemic, [^3 H]AMPA 5 nM, 100 mM KSCN, mean ± standard error (n = 3), values marked ^c single experiment, read-out: IC50 AMPA, receptor binding.
The mark [10] stands for this setting: text summary of Table I, racemic, read-out: selectively displaced ^3 H-AMPA with IC50 values.

Each structure is given as a SMILES string.

What is called IC50 is the concentration at which inhibition is half-maximal.

Consider `CC1=NN=C(c2ccc(N)cc2)c2cc3c(cc2C1)OCO3` [GKYI 52466], for which, in test [1], the “neuroprotection in rat global ischemia (in words)” value is recorded as “effective neuroprotective agent in rat global ischemia models”.

As for `NS(=O)(=O)c1cccc2c1c([N+](=O)[O-])cc1nc(O)c(O)nc12` [NBQX, 2,3-dihydroxy-6-nitro-7-sulfamoylbenzo[f]quinoxaline], the “prevention of global and focal ischemic damage (in words)” value in test [2] was “effective in preventing global and focal ischemic damage”.

As to `O=C(O)[C@@H]1C[C@H]2C[C@@H](CSc3nnn[nH]3)CC[C@H]2CN1` (racemic) [Compound 4, (3SR,4aRS,6SR,8aRS)-6-[2-(1(2)H-Tetrazole-5-yl)-2-thiaethyl]decahydroisoquinoline-3-carboxylic Acid], the IC50 is 29.4 ± 6.8 µM in test [3] (Table I, racemic); greater than 100 µM in test [5] (Table III, racemic); 3.3 ± 0.9 µM in test [6] (Table III, racemic); 0.9 ± 0.14 µM in test [8] (setting [9]); less than 15 µM in test [8] (setting [10]). Also, the “IC50 KA, antagonism of cortical wedge depolarization” value (“IC50 KA, antagonism” for short) in test [4] (Table III, racemic) is greater than 100 µM. In addition, the “selective AMPA receptor antagonism (in words)” value in test [6] (Table III, racemic) is given as “selective AMPA receptor antagonists”. Moreover, the “IC50 KA, receptor binding” value in test [7] (Table I, racemic) turned out to be 30.1 ± 1.6 µM.

Consider `O=C(O)[C@H]1C[C@@H]2C[C@H](CSc3nn[nH]n3)CC[C@@H]2CN1` [Compound 24], for which the IC50 was greater than 10 µM in test [3] (Table II, enantiopure); greater than 100 µM in test [5] (Table IV, enantiopure); 19.8 ± 2.2 µM in test [6] (Table IV, enantiopure); 21.9 µM in test [8] (Table II, enantiopure, [^3 H]AMPA 5 nM, 100 mM KSCN, mean ± standard error (n = 3), values marked ^c single experiment, read-out: IC50 AMPA, receptor binding). Further, the “IC50 KA, antagonism” value in test [4] (Table IV, enantiopure) is greater than 31.6 µM. For the same molecule, the “IC50 KA, receptor binding” value in test [7] (Table II, enantiopure) was greater than 100 µM.

`O=C(O)[C@@H]1C[C@H]2C[C@H](CSc3nnn[nH]3)CC[C@H]2CN1` (racemic) [Compound 5, (3SR,4aRS,6RS,8aRS)-6-[2-(1(2)H-Tetrazole-5-yl)-2-thiaethyl]decahydroisoquinoline-3-carboxylic Acid]: the IC50 in test [3] (Table I, racemic) is 47.9 ± 3.9 µM; in test [5] (Table III, racemic), greater than 100 µM; in test [6] (Table III, racemic) it was 6.1 ± 1.5 µM; in test [8] (setting [9]), 4.9 ± 0.4 µM; in test [8] (setting [10]), less than 15 µM. The “IC50 KA, antagonism” value in test [4] (Table III, racemic) is greater than 100 µM. Besides, the “selective AMPA receptor antagonism (in words)” value in test [6] (Table III, racemic) is “selective AMPA receptor antagonists”. Further, in test [7] (Table I, racemic), the “IC50 KA, receptor binding” value was 37.3 ± 2.3 µM.

With `O=C(O)[C@@H]1C[C@H]2C[C@@H](CCc3cc(O)no3)CC[C@H]2CN1` (racemic) [Compound 13, (3SR,4aRS,6RS,8aRS)-6-[2-(3-Hydroxyisoxazole-5-yl)ethyl]decahydroisoquinoline-3-carboxylic Acid], the IC50 in test [3] (Table I, racemic) was greater than 100 µM; in test [5] (Table III, racemic) it was greater than 100 µM; in test [6] (Table III, racemic) it was 16.5 ± 2.7 µM; in test [8] (setting [9]), 13.8 ± 1.24 µM; in test [8] (setting [10]) it was less than 15 µM. Moreover, the “IC50 KA, antagonism” value in test [4] (Table III, racemic) is greater than 100 µM. Besides, the “selective AMPA receptor antagonism (in words)” value in test [6] (Table III, racemic) is given as “selective AMPA receptor antagonists”. Also, the “IC50 KA, receptor binding” value in test [7] (Table I, racemic) is greater than 100 µM.

Consider `O=C(O)[C@@H]1C[C@H]2C[C@@H](CCSc3nnn[nH]3)CC[C@H]2CN1` (racemic) [Compound 9, (3SR,4aRS,6SR,8aRS)-6-[3-(1(2)H-Tetrazole-5-yl)-3-thiaprop-1-yl]decahydroisoquinoline-3-carboxylic Acid], for which the IC50 in test [3] (Table I, racemic) was greater than 100 µM; in test [5] (Table III, racemic), greater than 100 µM; in test [6] (Table III, racemic) it was 32.2 ± 1.7 µM; in test [8] (setting [9]), 56.2 ± 4.6 µM. For the same molecule, the “IC50 KA, antagonism” value in test [4] (Table III, racemic) was greater than 100 µM. Moreover, the “IC50 KA, receptor binding” value in test [7] (Table I, racemic) is greater than 100 µM.
